Results from patent US10131652B2, “Pyrimidinyloxy benzene derivatives as herbicides” (E. I. DU PONT DE NEMOURS AND COMPANY, priority 2014, dated 2018).
Like-named read-outs stand apart in the source and are kept apart here.

Assays:
Test in all cases: Test F pre-/postemergence plant response
Assay type in all cases: in vivo
[1] = test system: barnyardgrass (Echinochloa crus-galli); details: Echinochloa crus-galli, scale 0 to 100, read-out: Plant response rating, Barnyardgrass
Method in brief: (§1)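 Herbicidal effect judged by eye against controls, scored 0–100 (complete control = 100). Applications: pre-emergence onto seeded silt loam, post-emergence onto 2–18 cm seedlings; greenhouse, 14–21 days.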

[2] = test system: dayflower (Virginia (VA) dayflower, Commelina virginica); details: Commelina virginica, scale 0 to 100, read-out: Plant response rating, Dayflower, VA
Method in brief: as §1

[3] = test system: field bindweed (Convolvulus arvensis); details: Convolvulus arvensis, scale 0 to 100, read-out: Plant response rating, Field Bindweed
Method in brief: as §1

[4] = test system: giant foxtail (Setaria faberii); details: Setaria faberi, pre-emergence, scale 0 to 100, read-out: Plant response rating, Foxtail, Giant
Method in brief: as §1

[5] = test system: hairy beggarticks (Bidens pilosa); details: Bidens pilosa, scale 0 to 100, read-out: Plant response rating, Beggarticks
Method in brief: as §1

[6] = test system: johnsongrass (Sorghum halepense); details: Sorghum halepense, pre-emergence, scale 0 to 100, read-out: Plant response rating, Johnsongrass
Method in brief: as §1

[7] = test system: morningglory (Ipomoea coccinea); details: Ipomoea, pre-emergence, scale 0 to 100, read-out: Plant response rating, Morningglory
Method in brief: as §1

[8] = test system: ragweed (common ragweed, Ambrosia elatior); details: Ambrosia artemisiifolia, pre-emergence, scale 0 to 100, read-out: Plant response rating, Ragweed
Method in brief: as §1

[9] = test system: velvetleaf (Abutilon theophrasti); details: Abutilon theophrasti, pre-emergence, scale 0 to 100, read-out: Plant response rating, Velvetleaf
Method in brief: as §1

[10] = test system: waterhemp (common waterhemp, Amaranthus rudis); details: Amaranthus tuberculatus, scale 0 to 100, read-out: Plant response rating, Waterhemp
Method in brief: as §1

[11] = test system: yellow nutsedge (Cyperus esculentus); details: Cyperus, pre-emergence, scale 0 to 100, read-out: Plant response rating, Nutsedge, Yellow
Method in brief: as §1

[12] = post-emergence, 8 g ai/ha Postemergence
[13] = post-emergence, 16 g ai/ha Postemergence
[14] = post-emergence, 31 g ai/ha Postemergence
[15] = post-emergence, 62 g ai/ha Postemergence
[16] = post-emergence, 125 g ai/ha Postemergence
[17] = pre-emergence, 8 g ai/ha Preemergence
[18] = pre-emergence, 16 g ai/ha Preemergence
[19] = pre-emergence, 31 g ai/ha Preemergence
[20] = pre-emergence, 62 g ai/ha Preemergence
[21] = pre-emergence, 125 g ai/ha Preemergence

FC(F)c1cc(-c2ccccc2Oc2ncc(Cl)cn2)no1 [Compound 35, 5-chloro-2-[2-[5-(difluoromethyl)-3-isoxazolyl]phenoxy]pyrimidine]
70%: pest or weed control at 125 g/ha [3, 16] | pest or weed control at 31 g/ha ([4]; 31 g ai/ha Preemergence) | pest or weed control at 62 g/ha ([4]; 62 g ai/ha Preemergence) | pest or weed control at 125 g/ha [5, 16] | pest or weed control at 125 g/ha ([8]; 125 g ai/ha Preemergence) | pest or weed control at 16 g/ha ([9]; 16 g ai/ha Preemergence) | pest or weed control at 31 g/ha ([9]; 31 g ai/ha Preemergence) | pest or weed control at 8 g/ha [10, 12]
100%: pest or weed control at 125 g/ha ([4]; 125 g ai/ha Preemergence) | pest or weed control at 125 g/ha ([9]; 125 g ai/ha Preemergence) | pest or weed control at 62 g/ha ([9]; Preemergence) | pest or weed control at 62 g/ha [10, 15] | pest or weed control at 125 g/ha [10, 16] | pest or weed control at 8 g/ha [10, 17] | pest or weed control at 16 g/ha [10, 18] | pest or weed control at 31 g/ha [10, 19] | pest or weed control at 125 g/ha [10, 21] | pest or weed control at 62 g/ha ([10]; pre-emergence, Preemergence)
65%: pest or weed control at 125 g/ha [1, 21] | pest or weed control at 31 g/ha [2, 19] | pest or weed control at 62 g/ha [5, 15] | pest or weed control at 125 g/ha ([6]; 125 g ai/ha Preemergence) | pest or weed control at 125 g/ha ([7]; 125 g ai/ha Preemergence)
50%: pest or weed control at 62 g/ha [2, 15] | pest or weed control at 62 g/ha [3, 15] | pest or weed control at 31 g/ha [3, 19] | pest or weed control at 62 g/ha [3, 20] | pest or weed control at 125 g/ha [3, 21] | pest or weed control at 8 g/ha [5, 12] | pest or weed control at 16 g/ha [5, 13] | pest or weed control at 125 g/ha [5, 21]
25%: pest or weed control at 16 g/ha [2, 18]
85%: pest or weed control at 16 g/ha [10, 13]
35%: pest or weed control at 31 g/ha [3, 14] | pest or weed control at 16 g/ha [3, 18] | pest or weed control at 62 g/ha ([6]; Preemergence) | pest or weed control at 125 g/ha ([11]; 125 g ai/ha Preemergence)
60%: pest or weed control at 31 g/ha [5, 14]
40%: pest or weed control at 16 g/ha [2, 13] | pest or weed control at 31 g/ha [2, 14] | pest or weed control at 62 g/ha ([8]; Preemergence) | pest or weed control at 8 g/ha ([9]; 8 g ai/ha Preemergence)
95%: pest or weed control at 125 g/ha [2, 21]
90%: pest or weed control at 62 g/ha [2, 20] | pest or weed control at 31 g/ha [10, 14]
0%: pest or weed control at 8 g/ha [1, 12] | pest or weed control at 16 g/ha [1, 13] | pest or weed control at 31 g/ha [1, 14] | pest or weed control at 8 g/ha [1, 17] | pest or weed control at 16 g/ha [1, 18] | pest or weed control at 8 g/ha [2, 17] | pest or weed control at 8 g/ha [3, 17] | pest or weed control at 8 g/ha ([4]; 8 g ai/ha Preemergence) | pest or weed control at 8 g/ha [5, 17] | pest or weed control at 16 g/ha [5, 18] | pest or weed control at 8 g/ha ([6]; 8 g ai/ha Preemergence) | pest or weed control at 16 g/ha ([6]; 16 g ai/ha Preemergence) | pest or weed control at 31 g/ha ([6]; 31 g ai/ha Preemergence) | pest or weed control at 8 g/ha ([7]; 8 g ai/ha Preemergence) | pest or weed control at 16 g/ha ([7]; 16 g ai/ha Preemergence) | pest or weed control at 31 g/ha ([7]; 31 g ai/ha Preemergence) | pest or weed control at 8 g/ha ([8]; 8 g ai/ha Preemergence) | pest or weed control at 16 g/ha ([8]; 16 g ai/ha Preemergence) | pest or weed control at 31 g/ha ([8]; 31 g ai/ha Preemergence) | pest or weed control at 8 g/ha ([11]; 8 g ai/ha Preemergence) | pest or weed control at 16 g/ha ([11]; 16 g ai/ha Preemergence) | pest or weed control at 31 g/ha ([11]; 31 g ai/ha Preemergence)
80%: pest or weed control at 125 g/ha [2, 16]
30%: pest or weed control at 16 g/ha [3, 13] | pest or weed control at 62 g/ha ([7]; Preemergence)
10%: pest or weed control at 62 g/ha [1, 15] | pest or weed control at 62 g/ha [1, 20] | pest or weed control at 8 g/ha [2, 12] | pest or weed control at 16 g/ha ([4]; 16 g ai/ha Preemergence) | pest or weed control at 62 g/ha ([11]; Preemergence)
20%: pest or weed control at 125 g/ha [1, 16] | pest or weed control at 31 g/ha [1, 19] | pest or weed control at 8 g/ha [3, 12] | pest or weed control at 31 g/ha [5, 19] | pest or weed control at 62 g/ha [5, 20]
